Assay results as given in ChEMBL document CHEMBL3045585, “Combinatorial approach: identification of potential antifungals from triazole minilibraries” (2011).
Converted amounts (≈) assume the structure as drawn.

Experiments:
Assay type in all cases: functional
Penicillium chrysogenum = assay: Antifungal activity against Penicillium chrysogenum NCIM 725 by serial dilution method
Fusarium oxysporum = assay: Antifungal activity against Fusarium oxysporum NCIM 1008 by serial dilution method
Aspergillus niger = assay: Antifungal activity against Aspergillus niger NCIM 945 by serial dilution method
Aspergillus flavus = assay: Antifungal activity against Aspergillus flavus NCIM 536 by serial dilution method

Row | Structure (SMILES) | MIC (Penicillium chrysogenum) [µg/mL] | MIC (Fusarium oxysporum) [µg/mL] | MIC (Aspergillus niger) [µg/mL] | MIC (Aspergillus flavus) [µg/mL]
1 | COc1ccc(/C=N/n2c(SCc3ccccc3)nnc2-c2ccccc2N)cc1 | 125 (≈ 301 µM) | 250 (≈ 602 µM) | 62 (≈ 149 µM) | 32 (≈ 77 µM)
2 | Nc1ccccc1-c1nnc(SCc2ccccc2)n1/N=C/c1ccc(Cl)cc1 | 31 (≈ 73.8 µM) | 62 (≈ 148 µM) | 125 (≈ 298 µM) | 125 (≈ 298 µM)
3 | COc1ccc(/C=N/n2c(SCc3ccccc3)nnc2-c2ccncc2)cc1 | 125 (≈ 311 µM) | 250 (≈ 623 µM) | 31 (≈ 77.2 µM) | 250 (≈ 623 µM)
4 | CN(C)c1ccc(/C=N/n2c(SCc3ccccc3)nnc2-c2ccccc2N)cc1 | 250 (≈ 583 µM) | 32 (≈ 74.7 µM) | 62 (≈ 145 µM) | 125 (≈ 292 µM)
